Data on one compound can be found in patent US20070293559A1, “Orally Administered Agent For Preventing Or Improving Dry Station Of Skin” (priority 2004, published 2007).

Test [1] concerns HOS:HR-1 mice. In words: Water content of the skin surface (SKICON-200) after oral ingestion in feed. In kind it is in vivo. To be noted: CE-2 feed containing 0.5% or 1% by weight of hydroxyproline, two to five weeks of feeding, relative to CE-2 group. How it is done: HOS:HR-1 mice (male, 5 weeks old, purchased from SLC Japan) were used in the test. The breeding conditions were that the room temperature was 22±2° C., the humidity was 35±15% and a feed and water were freely ingested.
Each test group consisted of 10 mice. A commercially available powder feed CE-2 (manufactured by Clea Japan) was fed to mice of the first group, CE-2 containing 0.5% by weight of trans-4-hydroxy-L-proline (hereinafter also referred to simply as hydroxyproline; manufactured by Kyowa Hakko Kogyo Co., Ltd.) was fed to mice of the second group, and CE-2 containing 1% by weight of hydroxyproline was fed to mice of the third group.
The water content of the skin surface on the back thigh upper portion of each mouse was measured with SKICON-200 (manufactured by IBS) every one week, from two weeks to five weeks after the start-up of the feeding of each feed. The measurement was conducted ten times for each mouse, and an average value of each mouse was obtained. Further, an average value of each test group was calculated.
The relative epidermal water content was calculated according to the following formula using the average value. Relative epidermal water content (%)=(A2/A1)×100 • A1: Epidermal water content of the first group • A2: Epidermal water content of the second or third group

The subject of test [2] is HOS:HR-1 mice. In words: Transepidermal water loss (TEWL) in mice with dry skin induced by special feed. In kind it is in vivo. To be noted: for TEWL value: right rump, group average. As for the experimental part: HOS:HR-1 mice (female, 4 weeks old, purchased from SLC Japan) were used in the test. The breeding conditions were that the room temperature was 22±2° C., the humidity was 50±5% and a feed and water were freely ingested.
Each test group consisted of 10 mice. A commercially available powder feed CE-2 was fed to mice of the first group, a special feed (manufactured by Nippon Nosan Kogyo K.K.) was fed to mice of the second group, the special feed containing 0.5% by weight of hydroxyproline was fed to mice of the third group, and the special feed containing 1% by weight of hydroxyproline was fed to mice of the fourth group. The dry skin was induced in HOS:HR-1 mice by feeding of the special feed (The journal of international medical research pharmacology, 32, 392-399 (2004)).
A transepidermal water loss (TEWL) value of the right rump of each mouse was measured as an index of a barrier function of stratum corneum at the start-up of the feeding of each feed, after four weeks and after six weeks using Tewameter TM210 (Courage+Khazaka electronic GmbH, Germany), and an average value of each group was calculated.

As for `O=C(O)[C@@H]1C[C@@H](O)CN1` [hydroxyproline, trans-4-hydroxy-L-proline], the “water content of the skin (relative epidermal water content, FIG. 1)” value in the test on HOS:HR-1 mice [1] is reported as “markedly improved”. For the same compound, in the test on HOS:HR-1 mice [2] (fourth group (1% hydroxyproline in special feed), risk rate of less than 5% defined as significant), the “transepidermal water loss, t-test in comparison with the second group” value was “significant difference”. Further, the TEWL value with HOS:HR-1 mice [2] (fourth group: special feed containing 1% by weight of hydroxyproline, feeding period 0 week (start-up)) turned out to be 5.07 g/m^2/hour; in the test with HOS:HR-1 mice [2] (fourth group: special feed containing 1% by weight of hydroxyproline, feeding period 4 weeks) it was 25.07 g/m^2/hour; in the test on HOS:HR-1 mice [2] (fourth group: special feed containing 1% by weight of hydroxyproline, feeding period 6 weeks), 25.40 g/m^2/hour; in the test with HOS:HR-1 mice [2] (third group: special feed containing 0.5% by weight of hydroxyproline, feeding period 0 week (start-up)), 4.99 g/m^2/hour; with HOS:HR-1 mice [2] (third group: special feed containing 0.5% by weight of hydroxyproline, feeding period 4 weeks), 29.80 g/m^2/hour; in the test on HOS:HR-1 mice [2] (third group: special feed containing 0.5% by weight of hydroxyproline, feeding period 6 weeks) it was 29.04 g/m^2/hour. Moreover, the “barrier function of stratum corneum” value in the test with HOS:HR-1 mice [2] (oral ingestion of hydroxyproline) was “effect of improving the barrier function of stratum corneum”. In the test with HOS:HR-1 mice [2] (third and fourth groups (0.5% and 1% hydroxyproline in special feed) versus second group (special feed)), the “increase in transepidermal water loss” value is on record as “suppressed dependently on the concentration”.
